Experimental data reported in PubChem BioAssay AID256 (DTP/NCI, 2004).
Where “and” joins values, the source holds several entries; their conditions need not be identical. Identical values can stand only once. Inconclusive results and toxic doses are left out. Rule for the calls: active = survival T/C of 150% or more; inactive = T/C below 125% in these data.

System: CD2F1 mice, L1210 leukemia ip, survival T/C
Test: NCI In Vivo Anticancer Drug Screen. Data for tumor model L1210 Leukemia (intraperitoneal) in CD2F1 (CDF1) mice
Conditions: higher = longer survival
How it was run: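 Implant tumor; dose compound or vehicle; measure endpoint in both groups; report treated divided by control.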

[1] = endpoint: mean survival time, dose: 100.0 mg/kg/injection, schedule: Q01DX001 (ip), vehicle: saline with Tween-80
[2] = endpoint: mean survival time, dose: 100.0 mg/kg/injection, schedule: Q01DX009 (ip), vehicle: saline with Tween-80
[3] = endpoint: mean survival time, dose: 200.0 mg/kg/injection, schedule: Q01DX001 (ip), vehicle: saline with Tween-80
[4] = endpoint: mean survival time, dose: 200.0 mg/kg/injection, schedule: Q01DX009 (ip), vehicle: saline with Tween-80
[5] = endpoint: mean survival time, dose: 400.0 mg/kg/injection, schedule: Q01DX009 (ip), vehicle: saline with Tween-80
[6] = endpoint: mean survival time, dose: 25.0 mg/kg/injection, schedule: Q04DX002 (ip), vehicle: saline with Tween-80
[7] = endpoint: mean survival time, dose: 50.0 mg/kg/injection, schedule: Q04DX002 (ip), vehicle: saline with Tween-80
[8] = endpoint: mean survival time, dose: 100.0 mg/kg/injection, schedule: Q04DX003 (ip), vehicle: saline with Tween-80
[9] = endpoint: mean survival time, dose: 200.0 mg/kg/injection, schedule: Q04DX003 (ip), vehicle: saline with Tween-80
[10] = endpoint: mean survival time, dose: 400.0 mg/kg/injection, schedule: Q04DX003 (ip), vehicle: saline with Tween-80
[11] = endpoint: mean survival time, dose: 25.0 mg/kg/injection, schedule: Q01DX009 (ip), vehicle: saline with Tween-80
[12] = endpoint: mean survival time, dose: 50.0 mg/kg/injection, schedule: Q01DX009 (ip), vehicle: saline with Tween-80
[13] = endpoint: mean survival time, dose: 100.0 mg/kg/injection, schedule: Q04DX003 (ip), vehicle: saline
[14] = endpoint: mean survival time, dose: 200.0 mg/kg/injection, schedule: Q04DX003 (ip), vehicle: saline
[15] = endpoint: mean survival time, dose: 400.0 mg/kg/injection, schedule: Q04DX003 (ip), vehicle: saline

Measured: T/C

CC(=O)Nc1cc2ccccc2c2ccc3ccccc3c12
inactive: [1] 89 % of control | [2] 96 % of control | [3] 93 % of control | [4] 95 % of control | endpoint: mean survival time, dose: 400.0 mg/kg/injection, schedule: Q01DX001 (ip), vehicle: saline with Tween-80 102 % of control | [5] 96 % of control

CCCOCCN=C(N)C(N)=NCCOCCC
inactive: endpoint: mean survival time, dose: 12.5 mg/kg/injection, schedule: Q04DX002 (ip), vehicle: saline with Tween-80 97 % of control | [6] 89 % of control | [7] 97 % of control

CCCCOc1cc([N+](=O)[O-])ccc1CO
inactive: [8] 94 % of control | [9] 92 % of control | [10] 87 % of control

O=C(CNC(=O)Nc1cccc(C(F)(F)F)c1)N/N=C/c1ccccc1Cl
inactive: endpoint: mean survival time, dose: 12.5 mg/kg/injection, schedule: Q01DX009 (ip), vehicle: saline with Tween-80 87 % of control | [11] 87 % of control | [12] 87 % of control and 96 % of control | [2] 103 % of control | [4] 100 % of control

COc1cc(C(=O)C[n+]2ccccc2)ccc1O
inactive: [12] 103 % of control | [2] 87 % of control | [4] 96 % of control

CN(C)NC(=O)/C=C\C(=O)O
inactive: endpoint: mean survival time, dose: 100.0 mg/kg/injection, schedule: Q01DX009 (ip), vehicle: saline 101 % of control | endpoint: mean survival time, dose: 200.0 mg/kg/injection, schedule: Q01DX009 (ip), vehicle: saline 101 % of control

O=C1OC(c2ccccc2)CC1N1CCCCC1 (stereo unspecified)
inactive: endpoint: mean survival time, dose: 6.25 mg/kg/injection, schedule: Q01DX009 (ip), vehicle: saline sonified 92 % of control | endpoint: mean survival time, dose: 12.5 mg/kg/injection, schedule: Q01DX009 (ip), vehicle: saline sonified 101 % of control | endpoint: mean survival time, dose: 25.0 mg/kg/injection, schedule: Q01DX009 (ip), vehicle: saline sonified 105 % of control

O=C(OCC1OC(n2cc(C(F)(F)F)c(=O)[nH]c2=O)CC1OC(=O)c1ccc([N+](=O)[O-])cc1)c1ccc([N+](=O)[O-])cc1 (stereo unspecified)
inactive: endpoint: median survival time, dose: 25.0 mg/kg/injection, schedule: Q01DX009 (ip), vehicle: Klucel (hydroxypropylcellulose) (HPC) 116 % of control | endpoint: median survival time, dose: 50.0 mg/kg/injection, schedule: Q01DX009 (ip), vehicle: Klucel (hydroxypropylcellulose) (HPC) 113 % of control

CCCOC(=O)C(C(=O)OCCC)(C(=O)OCCC)C(=O)OCCC
inactive: endpoint: mean survival time, dose: 100.0 mg/kg/injection, schedule: Q01DX001 (ip), vehicle: saline 96 % of control | endpoint: mean survival time, dose: 200.0 mg/kg/injection, schedule: Q01DX001 (ip), vehicle: saline 107 % of control | endpoint: mean survival time, dose: 400.0 mg/kg/injection, schedule: Q01DX001 (ip), vehicle: saline 93 % of control

Cc1cc(N(CCOS(C)(=O)=O)CCOS(C)(=O)=O)ccc1C=Nc1ccc(-c2nc(Cc3ccccc3)sc2C)cc1
inactive: endpoint: mean survival time, dose: 12.5 mg/kg/injection, schedule: Q01DX009 (ip), vehicle: Klucel (hydroxypropylcellulose) (HPC) 103 % of control and 106 % of control | endpoint: mean survival time, dose: 25.0 mg/kg/injection, schedule: Q01DX009 (ip), vehicle: Klucel (hydroxypropylcellulose) (HPC) 117 % of control and 124 % of control | endpoint: mean survival time, dose: 50.0 mg/kg/injection, schedule: Q01DX009 (ip), vehicle: Klucel (hydroxypropylcellulose) (HPC) 117 % of control and 111 % of control | endpoint: mean survival time, dose: 100.0 mg/kg/injection, schedule: Q01DX009 (ip), vehicle: Klucel (hydroxypropylcellulose) (HPC) 118 % of control and 120 % of control | endpoint: mean survival time, dose: 200.0 mg/kg/injection, schedule: Q01DX009 (ip), vehicle: Klucel (hydroxypropylcellulose) (HPC) 110 % of control | endpoint: mean survival time, dose: 400.0 mg/kg/injection, schedule: Q01DX009 (ip), vehicle: Klucel (hydroxypropylcellulose) (HPC) 103 % of control

C1=CC2OC1c1cc3ccccc3cc12
inactive: endpoint: mean survival time, dose: 100.0 mg/kg/injection, schedule: Q04DX003 (ip), vehicle: other 121 % of control | endpoint: mean survival time, dose: 200.0 mg/kg/injection, schedule: Q04DX003 (ip), vehicle: other 105 % of control

CCN(CC)C(=S)SC
inactive: endpoint: mean survival time, dose: 75.0 mg/kg/injection, schedule: Q01DX001 (ip), vehicle: saline 104 % of control | endpoint: mean survival time, dose: 150.0 mg/kg/injection, schedule: Q01DX001 (ip), vehicle: saline 106 % of control

COc1cc(C=O)ccc1OC1OC(C(COC(C)=O)OC(C)=O)C(OC(C)=O)C(OC(C)=O)C1OC(C)=O (stereo unspecified)
inactive: endpoint: mean survival time, dose: 50.0 mg/kg/injection, schedule: Q01DX001 (ip), vehicle: saline with Tween-80 93 % of control | [1] 88 % of control | [3] 88 % of control

CCN(C(=O)C(F)(F)F)C(C)(C)C(SSSC(c1ccc(Cl)cc1)C(C)(C)N(CC)C(=O)C(F)(F)F)c1ccc(Cl)cc1 (stereo unspecified)
inactive: [13] 103 % of control | [14] 105 % of control | [15] 86 % of control

CC1c2ccccc2C=CN1C (stereo unspecified)
inactive: endpoint: mean survival time, dose: 100.0 mg/kg/injection, schedule: Q04DX003 (ip), vehicle: saline sonified 95 % of control | endpoint: mean survival time, dose: 200.0 mg/kg/injection, schedule: Q04DX003 (ip), vehicle: saline sonified 106 % of control | endpoint: mean survival time, dose: 400.0 mg/kg/injection, schedule: Q04DX003 (ip), vehicle: saline sonified 105 % of control

CCNC(=O)N1CC2CCC(C1)N2C
inactive: [13] 101 % of control | [14] 96 % of control | [15] 90 % of control

CC(=O)C(C)N(C)C (stereo unspecified)
inactive: [13] 105 % of control | [14] 100 % of control | [15] 96 % of control

CN1C(=O)C2C(N=C(c3ccccc3)N2O)N(C)C1=O (stereo unspecified)
inactive: endpoint: mean survival time, dose: 12.5 mg/kg/injection, schedule: Q01DX005 (ip), vehicle: other 93 % of control | endpoint: mean survival time, dose: 25.0 mg/kg/injection, schedule: Q01DX005 (ip), vehicle: other 93 % of control | endpoint: mean survival time, dose: 50.0 mg/kg/injection, schedule: Q01DX005 (ip), vehicle: other 90 % of control | endpoint: mean survival time, dose: 100.0 mg/kg/injection, schedule: Q01DX005 (ip), vehicle: other 97 % of control | endpoint: mean survival time, dose: 200.0 mg/kg/injection, schedule: Q01DX005 (ip), vehicle: other 98 % of control

O=[N+]([O-])c1ccc(SC2CCC(Cl)C3CCCCC23)c([N+](=O)[O-])c1 (stereo unspecified)
inactive: [6] 93 % of control | [7] 90 % of control | endpoint: mean survival time, dose: 100.0 mg/kg/injection, schedule: Q04DX002 (ip), vehicle: saline with Tween-80 86 % of control and 93 % of control | endpoint: mean survival time, dose: 400.0 mg/kg/injection, schedule: Q04DX002 (ip), vehicle: saline with Tween-80 86 % of control

CC(C)(CO)CBr
inactive: [2] 95 % of control | [8] 95 % of control | [4] 102 % of control | [9] 97 % of control | [5] 98 % of control | [10] 95 % of control

COC(=O)C(C)S(=O)(=O)O (stereo unspecified)
inactive: endpoint: mean survival time, dose: 100.0 mg/kg/injection, schedule: Q04DX002 (ip), vehicle: saline 106 % of control | endpoint: mean survival time, dose: 200.0 mg/kg/injection, schedule: Q04DX002 (ip), vehicle: saline 106 % of control | endpoint: mean survival time, dose: 400.0 mg/kg/injection, schedule: Q04DX002 (ip), vehicle: saline 95 % of control

Cc1cc[n+](CCc2ccccc2)cc1
inactive: [11] 112 % of control | endpoint: mean survival time, dose: 25.0 mg/kg/injection, schedule: Q04DX003 (ip), vehicle: saline 95 % of control | [12] 98 % of control | endpoint: mean survival time, dose: 50.0 mg/kg/injection, schedule: Q04DX003 (ip), vehicle: saline 96 % of control | [13] 94 % of control

Cc1ccc(C(=O)c2cnc(C)n2Cc2ccccc2)cc1
inactive: [2] 92 % of control | [4] 92 % of control | [5] 97 % of control

CC(C)(C)OC(=O)NOC(=O)C(C)(C)C
inactive: endpoint: mean survival time, dose: 25.0 mg/kg/injection, schedule: Q04DX003 (ip), vehicle: saline with Tween-80 101 % of control | endpoint: mean survival time, dose: 50.0 mg/kg/injection, schedule: Q04DX003 (ip), vehicle: saline with Tween-80 100 % of control | [8] 96 % of control | [9] 89 % of control | [10] 87 % of control
